Reference: US8563717B2, “Adenine derivatives” (GlaxoSmithKline LLC, priority 2008, dated 2013)

Tests used:
Type in all cases: cell-based
[1] = tested on: Interferon-α; test: Induction of Interferon-α using fresh human PBMCs; details: PBMC, 24 hr incubation, relative to 2 μM resiquimod control, read-out: mean pEC50 for induction of IFN-α (converted)
Experimental: (§1) Assay for the Induction of Interferon-α and TNF-α Using Fresh Human Peripheral Blood Mononuclear Cells (PBMCs)
(§2) Compounds were dissolved and serially diluted in DMSO to give 100× the required concentration range using a Biomek 2000. 1 ul of test compound was transferred into 96-well tissue culture plates using a Biomek FX. Each compound was assayed in duplicate for each donor. Each plate contained a dilution series of the TLR7/8 agonist resiquimod as standard and Column 11 contained 1 μl of 200 μM resiquimod (giving a 2 μM final concentration, used to define the approximate maximal response to resiquimod).
(§3) Blood samples from two human donors were collected into sodium heparin (10 U/ml). 25 ml volumes of whole blood were overlaid onto 15 mls Histopaque in Leucosep tubes which were centrifuged at 800 g for 20 min and the band at the plasma/histopaque interface carefully removed. The collected cells were centrifuged at 2500 rpm for 10 min. and the pellet resuspended in 10 ml of media (RPMI 1640 (Low endotoxin) supplemented with 10% v/v foetal calf serum (FCS, low endotoxin) 100 U/ml penicillin G, 100 μg/ml streptomycin, 10 mM L-glutamine and 1× non-essential amino acids). A 1:20 dilution of the cells was prepared using trypan blue & the cells counted using a haemocytometer. The PBMCs were diluted to give a final concentration of 2×10^6/ml and 100 ul of this cells suspension was added to wells containing 1 μl of diluted test compound.
(§4) The cell preparations were incubated for 24 hr. (37° C., 95% air, 5% CO2) after which a sample of the supernatant was removed using the Biomek FX and assayed for both IFN-α and TNF-α using the MSD (Mesoscale Discovery) electrochemiluminescence assay platform. The IFN-α assay was carried out similarly to that described above. The TNF-α assay was carried out as per kit instructions (Cat No K111BHB).
(§5) Cytokine released was expressed as a percentage of the 2 μM resiquimod control (column 11). This percentage was plotted against compound concentration and the pEC50 for the response determined by non-linear least squares curve fitting. For the IFN-α responses generally a 4 parameter logistic model was selected. For the TNF responses where a clear maximum response was obtained (i.e. a well defined plateau in the response was observed) then a 4 parameter model was generally used. If the upper asymptote of the curve wasn't well defined then the curve fitting was generally constrained to a maximal response of 100% (i.e., to the response to 2 μM resiquimod) or to the response of the highest concentration tested if this was greater than the resiquimod response. Some curves were bell shaped for one or both cytokines and the cytokine data on the down slope of the bell shaped response (i.e. concentrations above those giving the maximal response) were generally excluded from the fit, usually with the exception of the concentration immediately above the peak response. Curve fitting thus concentrated on the up slope of the dose response curve.

[2] = tested on: IL-13; test: Allergen-driven cytokine assay using fresh human PBMCs from atopic volunteers (IL-13); details: PBMC, PBMCs from at least two allergic donors, 10 μg/ml Timothy grass antigen, compared to the allergen control, read-out: concentration at which ≧50% reduction of IL-13 production observed
Experimental: (§6) Allergen-Driven Cytokine Assay Using Fresh Human Peripheral Blood Mononuclear Cells (PBMCs) from Atopic Volunteers
(§7) An assay based on co-culture of atopic human donor derived peripheral blood mononuclear cells (PBMCs) with allergen and test compounds was developed. After 5-6 days culture, cell supernatants were assayed for a range of cytokines.
(§8) Compounds were dissolved in DMSO, then serially diluted in growth medium (RPMI 1640 medium supplemented with 100 U/ml penicillin G, 100 μg/ml streptomycin, 10 mM L-glutamine) to give 4× the required concentration range in the presence of 0.04% DMSO. Each compound was assayed in triplicate at all concentrations.
(§9) Defibrinated human blood from volunteers known to be allergic to Timothy grass was centrifuged at 2500 rpm for 15 minutes. The upper layer of serum was collected and heat-inactivated at 56° C. for 30 minutes (HI-autologous serum). The lower layer of cells was resuspended in 50 ml PBS (+Ca +Mg), 25 ml diluted blood were overlaid onto 20 ml Lymphoprep in 50 ml tubes then centrifuged at 2500 rpm for 20 minutes at RT. The band at the serum/Lymphoprep interface was carefully removed. The collected cells were washed with PBS and re-suspended at 4×10^6/ml in growth medium with HI-autologous serum. PBMCs were seeded at 0.4×10^6 cells/well in flat-bottomed 96 well plates in the presence of 10 μg/ml Timothy grass antigen (Alk Abello) and test compounds at appropriate concentrations in a total volume of 200 ul.
(§10) Plates were incubated at 37° C. in 5% CO2 for up to 6 days. The cell medium from each well was harvested and stored at −20° C. prior to analysis. Cytokines and chemokines in supernatants were detected using Meso Scale Discovery 10 spot plates for Human TH1/Th2 cytokines.

[3] = tested on: IL-5; test: Allergen-driven cytokine assay using fresh human PBMCs from atopic volunteers (IL-5); details: PBMC, PBMCs from at least two allergic donors, 10 μg/ml Timothy grass antigen, compared to the allergen control, read-out: concentration at which ≧50% reduction of IL-5 production observed
Experimental: as §6, §7, §8, §9, §10

[4] = tested on: Interferon-α; test: Induction of Interferon-α using cryopreserved human PBMCs; details: PBMC, 24 h incubation, normalised to 1 uM resiquimod, read-out: mean pEC50 for induction of IFN-α (converted)
Outline: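 Cryopreserved healthy-donor PBMCs at 1×10^6 cells/ml in RPMI/10% FCS with 1000 units/ml IFN-gamma, exposed 24 h at 37 °C to 11-point two-fold compound dilutions. Supernatant IFN-α quantified by MSD electrochemiluminescence immunoassay; pEC50 from 4-parameter fit, normalised to 1 uM resiquimod and DMSO.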

[5] = tested on: TNF-α; test: Induction of TNF-α using fresh human PBMCs; details: PBMC, 24 hr incubation, relative to 2 μM resiquimod control, read-out: mean pEC50 for induction of TNF-α (converted)
Experimental: as §1, §2, §3, §4, §5

Row | SMILES | EC50 [1] [nM] | IC50 [2] [nM] | IC50 [3] [nM] | EC50 [4] [nM] | EC50 [5] [nM]
1 | CCCCOc1nc(N)c2[nH]c(=O)n(CCC3CCN(CC)CC3)c2n1 [Example 8] | < 100 | ≤ 40 | ≤ 8 | < 1580 | > 1000
2 | CCCCOc1nc(N)c2[nH]c(=O)n(CCCC3CCN(CC)CC3)c2n1 [Example 9] | < 10 | ≤ 40 | ≤ 8 | < 1580 | > 1000
3 | CCCCOc1nc(N)c2[nH]c(=O)n(CCCCC3CCN(CC)CC3)c2n1 [Example 10, 6-Amino-2-(butyloxy)-9-[4-(1-ethyl-4-piperidinyl)butyl]-7,9-dihydro-8H-purin-8-one] | < 10 | ≤ 40 | ≤ 8 | < 1580 | > 1000
4 | CCC[C@H](C)Oc1nc(N)c2[nH]c(=O)n(CCC3CCN(C(C)C)CC3)c2n1 [Example 92, 6-Amino-2-{[(1S)-1-methylbutyl]oxy}-9-{2-[1-(1-methylethyl)-4-piperidinyl]ethyl}-7,9-dihydro-8H-purin-8-one] | < 10 | ≤ 40 | ≤ 8 | < 1580 | > 1000
5 | CCC[C@H](C)Oc1nc(N)c2[nH]c(=O)n(CCCC3CCN(C(C)C)CC3)c2n1 [Example 106, 6-Amino-2-{[(1S)-1-methylbutyl]oxy}-9-{3-[1-(1-methylethyl)-4-piperidinyl]propyl}-7,9-dihydro-8H-purin-8-one] | < 0.316 |  |  | < 1580 | > 31.6
6 | CCCCOc1nc(N)c2[nH]c(=O)n(CCCCC3CCN(CCC)CC3)c2n1 [Example 108, 6-Amino-2-(butyloxy)-9-[4-(1-propyl-4-piperidinyl)butyl]-7,9-dihydro-8H-purin-8-one] | < 1 |  |  | < 1580 | > 1000
7 | CCC[C@H](C)Oc1nc(N)c2[nH]c(=O)n(CCCCC3CCN(CC)CC3)c2n1 [Example 119, 6-Amino-9-[4-(1-ethyl-4-piperidinyl)butyl]-2-{[(1S)-1-methylbutyl]oxy}-7,9-dihydro-8H-purin-8-one] | < 0.316 |  |  | < 1580 | > 31.6
8 | CCCCOc1nc(N)c2[nH]c(=O)n(CCCCCC3CCNCC3)c2n1 [Example 122, 6-Amino-2-(butyloxy)-9-[5-(4-piperidinyl)pentyl]-7,9-dihydro-8H-purin-8-one] | < 0.316 |  |  | < 1580 | > 31.6
9 | CC(C)Oc1nc(N)c2[nH]c(=O)n(CCCCC3CCNCC3)c2n1 [Example 135, 6-Amino-2-[(1-methylethyl)oxy]-9-[4-(4-piperidinyl)butyl]-7,9-dihydro-8H-purin-8-one] | < 100 |  |  | < 1580 | > 1000
